In the CheMixHub ionic liquid set:

Experiment: xn = mol fraction of the nth substance listed

CCCCCCCCCCCCCCCC[n+]1ccccc1.O=C([O-])C(O)c1ccccc1 + NCC(=O)O + O
electrical conductivity [S/m], 101 kPa
Conditions | 293.15 K | 298.15 K | 303.15 K | 308.15 K | 313.15 K
x1 = 1.08e-06, x2 = 0 | 0.00061 | 0.00068 | 0.00076 | 0.00083 | 0.0009
x1 = 1.09e-06, x2 = 0.001799 | 0.00103 | 0.00118 | 0.0013 | 0.0015 | 0.0017
x1 = 1.26e-06, x2 = 0.0009002 | 0.00083 | 0.00094 | 0.00106 | 0.0012 | 0.0013
x1 = 1.98e-06, x2 = 0 | 0.001 | 0.0012 | 0.0013 | 0.0014 | 0.0016
x1 = 2.17e-06, x2 = 0.001799 | 0.00151 | 0.00172 | 0.0019 | 0.0022 | 0.0024
x1 = 2.35e-06, x2 = 0.0009002 | 0.00125 | 0.00142 | 0.0016 | 0.0018 | 0.0019
x1 = 2.88e-06, x2 = 0 | 0.00147 | 0.0016 | 0.0018 | 0.002 | 0.0022
x1 = 3.26e-06, x2 = 0.001799 | 0.00188 | 0.0022 | 0.0024 | 0.0027 | 0.003
x1 = 3.43e-06, x2 = 0.0009002 | 0.00163 | 0.00185 | 0.0021 | 0.0023 | 0.0025
x1 = 3.96e-06, x2 = 0 | 0.0019 | 0.0022 | 0.0024 | 0.0026 | 0.0029
x1 = 4.35e-06, x2 = 0.001799 | 0.00233 | 0.00265 | 0.0029 | 0.0033 | 0.0036
x1 = 4.52e-06, x2 = 0.0009002 | 0.00209 | 0.00237 | 0.0026 | 0.0029 | 0.0032
x1 = 4.69e-06, x2 = 0 | 0.0023 | 0.0026 | 0.0029 | 0.0031 | 0.0035
x1 = 5.26e-06, x2 = 0.001799 | 0.00273 | 0.00308 | 0.0034 | 0.0038 | 0.0042
x1 = 5.78e-06, x2 = 0.0009002 | 0.00258 | 0.00291 | 0.0032 | 0.0036 | 0.004
x1 = 5.95e-06, x2 = 0 | 0.00281 | 0.0032 | 0.0035 | 0.0038 | 0.0042
x1 = 6.52e-06, x2 = 0.001799 | 0.0032 | 0.00363 | 0.004 | 0.0045 | 0.005
x1 = 7.05e-06, x2 = 0.0009002 | 0.00305 | 0.00343 | 0.0038 | 0.0042 | 0.0046
x1 = 7.21e-06, x2 = 0 | 0.00341 | 0.0038 | 0.0042 | 0.0046 | 0.0051
x1 = 8.16e-06, x2 = 0.001799 | 0.00379 | 0.00429 | 0.0048 | 0.0053 | 0.0059
x1 = 8.31e-06, x2 = 0.0009002 | 0.00355 | 0.00401 | 0.0045 | 0.0049 | 0.0054
x1 = 8.83e-06, x2 = 0 | 0.00406 | 0.0046 | 0.005 | 0.0055 | 0.006
x1 = 9.79e-06, x2 = 0.001799 | 0.00435 | 0.00491 | 0.0055 | 0.0061 | 0.0068
x1 = 9.94e-06, x2 = 0.0009002 | 0.00404 | 0.00455 | 0.0051 | 0.0056 | 0.0063
x1 = 1.045e-05, x2 = 0 | 0.00469 | 0.0053 | 0.0058 | 0.0065 | 0.0071
x1 = 1.124e-05, x2 = 0.001799 | 0.00472 | 0.00536 | 0.006 | 0.0067 | 0.0075
x1 = 1.138e-05, x2 = 0.0009002 | 0.00443 | 0.00502 | 0.00561 | 0.0062 | 0.007
x1 = 1.207e-05, x2 = 0 | 0.00516 | 0.0058 | 0.0064 | 0.0071 | 0.0079
x1 = 1.269e-05, x2 = 0.001799 | 0.00515 | 0.00581 | 0.0065 | 0.0073 | 0.0081
x1 = 1.283e-05, x2 = 0.0009002 | 0.00481 | 0.00543 | 0.00607 | 0.0068 | 0.0076
x1 = 1.351e-05, x2 = 0 | 0.00562 | 0.00631 | 0.007 | 0.0077 | 0.0085
x1 = 1.41e-05, x2 = 0.0009002 | 0.00512 | 0.0058 | 0.00647 | 0.0072 | 0.008
x1 = 1.414e-05, x2 = 0.001799 | 0.00553 | 0.00625 | 0.007 | 0.0078 | 0.0087
x1 = 1.478e-05, x2 = 0 | 0.00603 | 0.0068 | 0.0075 | 0.0083 | 0.0092
x1 = 1.54e-05, x2 = 0.001799 | 0.00584 | 0.0066 | 0.0074 | 0.0083 | 0.0092
x1 = 1.554e-05, x2 = 0.0009002 | 0.0055 | 0.00621 | 0.0069 | 0.0077 | 0.0086
x1 = 1.622e-05, x2 = 0 | 0.00644 | 0.0072 | 0.008 | 0.0089 | 0.0098
x1 = 1.667e-05, x2 = 0.001799 | 0.00618 | 0.00697 | 0.0078 | 0.0087 | 0.0097
x1 = 1.681e-05, x2 = 0.0009002 | 0.0058 | 0.00657 | 0.0073 | 0.0082 | 0.0091
x1 = 1.766e-05, x2 = 0 | 0.00687 | 0.0077 | 0.0085 | 0.0094 | 0.0104

Cn1cc[n+](CCO)c1.[Cl-] + O
100 kPa
Conditions | electrical conductivity, 293.15 K [S/m] | electrical conductivity, 298.15 K [S/m] | electrical conductivity, 303.15 K [S/m] | electrical conductivity, 308.15 K [S/m] | electrical conductivity, 313.15 K [S/m] | viscosity, 293.15 K [mPa·s] | viscosity, 298.15 K [mPa·s] | viscosity, 303.15 K [mPa·s] | viscosity, 308.15 K [mPa·s] | viscosity, 313.15 K [mPa·s]
x1 = 3.478e-05 | 0.0241 | 0.0281 | 0.0319 | 0.036 | 0.04 | – | – | – | – | –
x1 = 5.784e-05 | 0.0382 | 0.0443 | 0.0496 | 0.056 | 0.062 | – | – | – | – | –
x1 = 9.73e-05 | 0.0597 | 0.0693 | 0.0776 | 0.0866 | 0.095 | 1.015 | 0.904 | 0.815 | 0.738 | 0.676
x1 = 0.0001191 | 0.0701 | 0.082 | 0.0913 | 0.1 | 0.11 | – | – | – | – | –
x1 = 0.0001798 | 0.0949 | 0.111 | 0.123 | 0.133 | 0.146 | – | – | – | – | –
x1 = 0.0002349 | 0.117 | 0.136 | 0.151 | 0.163 | 0.178 | 1.023 | 0.912 | 0.826 | 0.75 | 0.69
x1 = 0.0002827 | 0.133 | 0.154 | 0.171 | 0.183 | 0.2 | 1.025 | 0.914 | 0.829 | 0.753 | 0.694
x1 = 0.0003387 | 0.15 | 0.173 | 0.192 | 0.209 | 0.224 | – | – | – | – | –
x1 = 0.0003943 | 0.165 | 0.191 | 0.214 | 0.228 | 0.248 | 1.029 | 0.92 | 0.835 | 0.76 | 0.702
x1 = 0.000458 | – | – | – | – | – | 1.032 | 0.922 | 0.838 | 0.764 | 0.706
x1 = 0.0005686 | – | – | – | – | – | 1.036 | 0.926 | 0.844 | 0.77 | 0.713
x1 = 0.0007379 | – | – | – | – | – | 1.041 | 0.933 | 0.851 | 0.778 | 0.722
x1 = 0.0009513 | – | – | – | – | – | 1.048 | 0.94 | 0.86 | 0.787 | 0.732
x1 = 0.001272 | – | – | – | – | – | 1.056 | 0.949 | 0.872 | 0.799 | 0.746
x1 = 0.001562 | – | – | – | – | – | 1.063 | 0.957 | 0.882 | 0.809 | 0.757
